The values that follow come from PMC6835510, “Magnificamide, a β-Defensin-Like Peptide from the Mucus of the Sea Anemone Heteractis magnifica, Is a Strong Inhibitor of Mammalian α-Amylases” (Marine Drugs, 2019).

Like-named read-outs stand apart in the source and are kept apart here. Bridge positions count the residues as written; N and C are the ends. Ends that are not written are not given here.

Data set [1] concerns human saliva α-amylases (HSA). The settings on record: cited from earlier work. The text has this: It covers all age groups of the population, and recently it has spread epidemiologically among children and adolescents. The blood glucose levels of diabetic patients reaches abnormally high values, which leads to serious damage to many body systems, especially nerves and blood vessels, causing heart and kidney diseases, blindness, and even the amputation of limbs. The preferred way to maintain ...

Data set [2] concerns the target T1, porcine pancreatic α-amylase (PPA) (Sus scrofa, UniProt P00690).
T1 construct: purchased Sigma Aldrich A4268
T1 sequence (P00690 16-511): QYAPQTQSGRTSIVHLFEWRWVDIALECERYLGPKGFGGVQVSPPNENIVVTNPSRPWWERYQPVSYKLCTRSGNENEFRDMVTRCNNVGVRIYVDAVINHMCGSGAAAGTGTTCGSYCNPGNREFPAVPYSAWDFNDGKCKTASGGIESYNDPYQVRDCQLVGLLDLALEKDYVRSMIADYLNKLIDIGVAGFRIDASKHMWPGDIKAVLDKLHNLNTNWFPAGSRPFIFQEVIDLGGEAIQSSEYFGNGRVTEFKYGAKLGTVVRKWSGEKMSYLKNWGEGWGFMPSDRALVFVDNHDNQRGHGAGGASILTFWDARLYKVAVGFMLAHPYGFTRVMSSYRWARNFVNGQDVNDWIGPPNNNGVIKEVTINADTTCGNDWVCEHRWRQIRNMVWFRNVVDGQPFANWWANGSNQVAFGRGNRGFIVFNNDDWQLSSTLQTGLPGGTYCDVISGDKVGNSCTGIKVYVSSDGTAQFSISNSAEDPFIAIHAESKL
The settings on record: cited from earlier work. The text has this: It covers all age groups of the population, and recently it has spread epidemiologically among children and adolescents. The blood glucose levels of diabetic patients reaches abnormally high values, which leads to serious damage to many body systems, especially nerves and blood vessels, causing heart and kidney diseases, blindness, and even the amputation of limbs. […] Recently, as a result of the proteomic analysis of the sea anemone H. magni ...

The target of data set [3] is human pancreatic α-amylase (HPA). The settings on record: Table 5, ref [11]; cited from earlier work. The text has this:
Recently, as a result of the proteomic analysis of the sea anemone H. magni ...

Data set [4] has as its target human salivary α-amylase (HSA) (Homo sapiens, UniProt P0DUB6). Put plainly: Determination of Ki against human saliva α-amylase (Morrison). It is filed as biochemical. The settings on record: pH 7, Table 5 summary, own value; 37 °C, pH 7.0, CNPG3, Morrison fit; read-out: Ki, M (HSA) (converted). The protocol: For a quantitative assessment of tight-binding inhibitor potency, Morrison’s method was applied. This method uses the Morrison quadratic equation (Equation (1)) for fitting inhibitor-response data and determining Ki app as a nonlinear regression parameter. (1) υ/υo=1−([E]+[I]+Kiapp)−([E]+[I]+Kiapp)^2−4[E][I]/2[E]o
Kinetic assays were carried out at 37 °C in 50 mM sodium phosphate and 100 mM sodium chloride (pH 7.0). 2-Chloro-4-nitrophenyl-α-maltotrioside (CNPG3) (Sigma Aldrich, St. Louis, MO, USA) was used as the substrate and the optical absorption of the 2-chloro-4-nitrophenol was measured at 405 nm. Reactions were run with final [CNPG3] = 1 mM ([S]/KM = 1.41, KM = 0.71 mM), nominal [E] = 20 nM for PPA, [CNPG3] = 3.3 mM ([S]/KM = 0.97, KM = 3.4 mM), and nominal [E] = 100 nM for HSA to provide sufficient analytical signal. Inhibitor dilution schemes were optimized considering recommendations in [34].
The enzyme was pre-incubated with the inhibitor for 10 minutes before the addition of substrate which launched the reaction. Reactions were monitored on an xMark microplate spectrophotometer (BioRad, USA) in the kinetic mode for 30 min. The initial linear steady state region provided initial rate values for each inhibitor concentration (υ), along with uninhibited rate values (υo). Measurements were run in triplicate. […]

Data set [5] deals with 18 subtypes of voltage-gated potassium and voltage-gated sodium channels. Briefly: Electrophysiological screening, overall. The data set is classed as cell-based. To be noted: 10 µM; Xenopus laevis oocytes; listed as magnificamide. The text has this:
For the expression of Nav channels (mammalian rNav1.2, rNav1.4, hNav1.5, mNav1.6 and hNav1.8 channels; the insect channel BgNav1 from Blattella germanica; and the auxiliary subunits rβ1, hβ1, and TipE) and Kv channels (mammalian rKv1.1, rKv1.2, hKv1.3, rKv1.4, rKv1.5, rKv1.6, rKv2.1, hKv3.1, rKv4.2, hKv10.1, and hERG; and Drosophila Shaker’s IR) in Xenopus laevis oocytes; the linearized plasmids were transcribed using the T7 or SP6 mMESSAGE-mMACHINE transcription kit (Ambion, Carlsbad, CA, USA). The harvesting of stage V–VI oocytes from anesthetized female Xenopus laevis frog was previously described. Oocytes were injected with 50 nL of cRNA at a concentration of 1 ng/nL using a microinjector (Drummond Scientific, Broomall, PA, USA). The oocytes were incubated in a solution containing 96-mM NaCl, 2-mM KCl, 1.8-mM CaCl2, 2-mM MgCl2, and 5-mM HEPES (pH 7.4), supplemented with 50 mg/L gentamycin sulfate.
Two-electrode voltage-clamp recordings were performed at room temperature (18–22 °C) using a Geneclamp 500 amplifier (Molecular Devices, Downingtown, PA, USA) controlled by a pClamp data acquisition system (Axon Instruments, Union City, CA, USA). Whole cell currents from oocytes were recorded 1–4 days after injection. The bath solution’s composition was 96-mM NaCl, 2-mM KCl, 1.8-mM CaCl2, 2-mM MgCl2, and 5-mM HEPES (pH 7.4). Toxins were applied directly to the bath. Resistances of both electrodes were kept between 0.8 and 1.5 MΩ. The elicited currents were sampled at 20 kHz (Nav) or 2 kHz (Kv), filtered at 2 kHz (Nav) or 0.5 kHz (Kv) using a four-pole low-pass Bessel filter. Leak subtraction was performed using a -P/4 protocol. […] For the electrophysiological analysis, a number of protocols were applied from a holding potential of −90 mV with a start-to-start interval of 0.2 Hz. Kv1.1–Kv1.6 and Shaker currents were evoked by 250-ms depolarizations to 0 mV followed by a 250 ms pulse to −50 mV from a holding potential of −90 mV. […] All data were analyzed using pClamp Clampfit 10.0 (Molecular Devices, Downingtown, PA, USA) and Origin 7.5 software (Originlab, Northampton, MA, USA).

Data set [6] deals with fungi, Gram-positive or Gram-negative bacteria. Put plainly: Antimicrobial screening, overall. The settings on record: 1, 5, 10, 20 µM; listed as magnificamide. The data set is classed as cell-based. How it is done:
The antimicrobial activity of r-magnificamide was tested against Gram-positive (Staphylococcus aureus ATCC 21027 and Bacillus subtilis ATCC6633), Gram-negative bacteria (Escherichia coli VKPM B-7935 and Pseudomonas aeruginosa ATCC 27853), and the fungus Candida albicans KMM 455 by the agar dilution method. Microbial strains were taken from the American Type Culture Collection (ATCC), Russian National Collection of Industrial Microorganisms (VKPM), and Collection of Marine Microorganisms (KMM) (Pacific Institute of Bioorganic Chemistry FEB RAS). To obtain a microbial lawn, 0.1 mL of a cell suspension (0.5 × 10^8 cells/mL) was uniformly distributed on agar surface in Petri dishes (15 g/L tryptic soy broth, 2 g/L bacto yeast extract, 1 g/L glucose, and 20 g/L agar for bacteria; for fungi 10 g/L of glucose was added). Wells with a diameter of 6 mm were punched into the agar and filled with 100 µL of the peptide solution at concentrations 1, 5, 10, and 20 µM. The plates were then incubated for 18 h at 37 °C for bacteria, and at 30 °C for the fungus. Minimum inhibitory concentration was determined by measuring the clear zone of inhibition around each well. All assays were performed independently three times.

The target of data set [7] is porcine pancreatic α-amylase (porcine) (UniProt P00690). Put plainly: enzyme inhibition kinetics (Morrison tight-binding fit); 37 °C, 50 mM sodium phosphate, 100 mM sodium chloride, pH 7.0; substrate CNPG3 (1 mM with nominal 20 nM PPA; 3.3 mM with nominal 100 nM HSA); enzyme pre-incubated with inhibitor 10 min; Ki from Ki app assuming a competitive mode of inhibition; triplicate.

For data set [8] the following is noted: due to β-sandwich fold; ref [17]; cited from earlier work. The text has this: The medicines based on proteins and peptides are poorly represented in the pharmacological market, but attract the interest of specialists due to their high selectivity and effectiveness, combined with relative safety and good tolerability. A large number of proteinaceous α-amylase inhibitors have been isolated from plants, but they are highly specific and interacted with plant α-amylases to control the breakdown of stored starch or with insect α-amylases for defense. Several very effective proteinaceous inhibitors of mammalian, but not plant or microbial α-amylases were found in bacter ...

human salivary α-amylase (HSA), sequence (P0DUB6 16-511): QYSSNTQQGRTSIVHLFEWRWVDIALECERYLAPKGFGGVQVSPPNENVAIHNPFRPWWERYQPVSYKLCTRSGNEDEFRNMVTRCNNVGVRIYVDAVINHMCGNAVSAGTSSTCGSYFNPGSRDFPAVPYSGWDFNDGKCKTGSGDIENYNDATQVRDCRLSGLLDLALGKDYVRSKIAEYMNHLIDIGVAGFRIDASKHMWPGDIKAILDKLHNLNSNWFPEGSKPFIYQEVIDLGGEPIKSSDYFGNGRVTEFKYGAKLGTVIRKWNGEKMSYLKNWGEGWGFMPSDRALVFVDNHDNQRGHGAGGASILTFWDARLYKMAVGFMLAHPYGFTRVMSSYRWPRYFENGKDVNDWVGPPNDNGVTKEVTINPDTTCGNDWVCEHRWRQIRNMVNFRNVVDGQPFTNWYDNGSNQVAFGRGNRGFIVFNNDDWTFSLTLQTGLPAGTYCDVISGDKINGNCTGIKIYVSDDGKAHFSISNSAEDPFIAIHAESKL

As for `C[C@H]1O[C@H](O[C@H]2[C@H](O)[C@@H](O)[C@@H](O[C@H]3[C@H](O)[C@@H](O)C(O)O[C@@H]3CO)O[C@@H]2CO)[C@H](O)[C@@H](O)[C@@H]1N[C@H]1C=C(CO)[C@@H](O)[C@H](O)[C@H]1O` (some centres unmarked) [Acarbose], the Ki in data set [1] (Table 5, ref [9], read-out: Ki, M (HSA) (converted)) is 1300 nM; in data set [1] (ref [9], read-out: Ki against HSA), 1260 nM.
“Helianthamide: α-amylase inhibitor of the β-defensins family from Stichodactyla helianthus (44 aa, 4716 Da); PDB ID 4XON (ESGNSCYIYHGVSGICKASCAEDEKAMAGMGVCEGHLCCYKTPW; three disulfide bridges; the text prints the PDB ID as 4XON, read as 4X0N (complex with porcine pancreatic alpha-amylase)) [reference compound]”: the Ki in data set [2] (Table 5, ref [18]) is 0.1 nM.
Montbretin A: the Ki in data set [3] was 8.1 nM.
In the case of “SEGTSCYIYHGVYGICKAKCAEDMKAMAGMGVCEGDLCCYKTPW (disulfide 6-38, 16-33, 20-39) [Magnificamide]”, the Ki in data set [4] is 7.7 nM. Also, the “Ion channel modulating activity, overall” value in data set [5] is recorded as “found no activity”. For the same molecule, the “Antimicrobial activity, overall” value in data set [6] is given as “No antimicrobial activity against Gram-positive, Gram-negative bacteria, or fungi was observed”.
In data set [7], recombinant magnificamide (peptide) yielded a Ki of 0.17 nM.

B1: Tendamistat (HOE-467A): α-amylase inhibitor from Streptomyces tendae 4158, Mr 7958 Da (protein, UniProt P01092 31-104, looked up)
Alpha-amylase inhibitor …: DTTVSEPAPSCVTLYQSWRYSQADNGCAQTVTVKVVYEDDTEGLCYAVAPGQITTVGDGYIGSHGHARYLARCL
Consider B1, for which the Ki in data set [2] (Table 5, ref [13]) was 0.009 nM. In data set [8], the immunogenicity result is on record as “high immunogenicity”.

B2: Parvulustat (Z-2685): α-amylase inhibitor from Streptomyces parvullus FH-1641, Mr 8129 Da (protein)
chain: ATGSPVAECVEYFQSWRYTDVHNGCADAVSVTVEYTHGQWAPCRVIEPGGWATFAGYGTDGNYVTGLHTCDPATPSGV
modifications: two disulfide bridges; expected 78 aa, 8129 Da
With B2, the Ki in data set [2] (Table 5, ref [16]) is 0.028 nM.
